Here are results for 80 compounds from paper PMC4821887, “Identification of chemicals that mimic transcriptional changes associated with autism, brain aging and neurodegeneration” (Nature Communications, 2016).

Counter-ions that a name gives are not always drawn. Like-named read-outs stand apart in the source and are kept apart here.

In the data set the test system is mouse cortical neuron cultures.

In the case of Metiram-zinc, the “% Dead cells (vehicle subtracted)” value is -0.5751%. On to `COc1nc(C)nc(NC(=O)NS(=O)(=O)c2ccccc2C(=O)O)n1` [Metsulfuron (Ally)], for which the “% Dead cells (vehicle subtracted)” value was determined as 1.078%. Turning to `CCOC(=O)CC(SP(=O)(OC)OC)C(=O)OCC` (stereo not shown) [Malaoxon], the “% Dead cells (vehicle subtracted)” value is -0.008689%. Consider `CCCCOCCOCCOCc1cc2c(cc1CCC)OCO2` [Piperonyl butoxide], for which the “% Dead cells (vehicle subtracted)” value (mouse, 24 h, 10 µM) is -3.535%. For `CCCOC(=O)c1ccc(C(=O)OCCC)nc1`, the “% Dead cells (vehicle subtracted)” value is -2.999%. With `CNC(=O)Oc1cccc2c1OC(C)(C)O2` [Bendiocarb], the “% Dead cells (vehicle subtracted)” value worked out at 9.256%. As for `COC(=O)c1ccc(I)cc1S(=O)(=O)[N-]C(=O)Nc1nc(C)nc(OC)n1.[Na+]` [Iodosulfuron-methyl-sodium], the “% Dead cells (vehicle subtracted)” value was -4.352%. As for `COc1nc(NC(C)C)nc(NC(C)C)n1`, the “% Dead cells (vehicle subtracted)” value is listed as -1.14%. As to `O=C(O)C1(C(=O)Nc2ccc(Cl)cc2Cl)CC1` [Cyclanilide], the “% Dead cells (vehicle subtracted)” value came to 0.6928%.

With `CCc1cccc(C)c1N(C(=O)CCl)C(C)COC` (stereo not shown) [Metolachlor], the “% Dead cells (vehicle subtracted)” value is -3.586%.

For `CCCN(CCC)c1c([N+](=O)[O-])cc(C(F)(F)F)c(N)c1[N+](=O)[O-]` [Prodiamine], the “% Dead cells (vehicle subtracted)” value is -0.1982%. As for `CCCCC(CC)COC(=O)c1ccccc1C(=O)O` (stereo not shown), the “% Dead cells (vehicle subtracted)” value (10 µM chemical, mouse cortical neuron cultures) is recorded as -0.8176%. Turning to `COC(=O)N(C(=O)N1CO[C@@]2(C(=O)OC)Cc3cc(Cl)ccc3C2=N1)c1ccc(OC(F)(F)F)cc1` [Indoxacarb], under “mouse, 24 h, 10 µM”, the “% Dead cells (vehicle subtracted)” value amounted to 0.6208%. In the case of `Cc1cc(C)nc(Nc2ccccc2)n1` [Pyrimethanil], the “% Dead cells (vehicle subtracted)” value (mouse, 24 h, 10 µM) is -4.407%. In the case of `CCCOc1nn(C(=O)[N-]S(=O)(=O)c2ccccc2C(=O)OC)c(=O)n1C.[Na+]` [Propoxycarbazone-sodium], the “% Dead cells (vehicle subtracted)” value is listed as -1.764%. As to `Cc1cc(Cl)ccc1OCC(=O)O` [MCPA (Agroxone)], the “% Dead cells (vehicle subtracted)” value came to 9.261%.

For `O=C(O)c1nc(Cl)ccc1Cl`, the “% Dead cells (vehicle subtracted)” value is recorded as -1.907%. Turning to `Cc1ccc(C(=O)c2ccccc2)cc1` [Methanone (4-Methylbenzophenone)], the “% Dead cells (vehicle subtracted)” value came out at 2.416%. Turning to `CCCCNC(=O)n1c(NC(=O)OC)nc2ccccc21` [Benomyl], where the note is “mouse, 24 h, 10 µM”, the “% Dead cells (vehicle subtracted)” value is 1.032%.

For `CC1(C)CCC(=Cc2ccc(Cl)cc2)C1(O)Cn1cncn1` (stereo not shown) [Triticonazole], the “% Dead cells (vehicle subtracted)” value (mouse, 24 h, 10 µM) was determined as 0.8709%. Turning to `CN(C)[C@@H]1C(O)=C(C(N)=O)C(=O)[C@@]2(O)C(O)=C3C(=O)c4c(O)cccc4[C@@](C)(O)[C@H]3[C@H](O)[C@@H]12` [Oxytetracycline dihydrate], the “% Dead cells (vehicle subtracted)” value reads like this: (mouse, 24 h, 0.1 µM) -3.324%; (mouse, 24 h, 1 µM) -0.5636%; (mouse, 24 h, 10 µM) 21.6384%. As to `CCOP(=O)(NC(C)C)Oc1ccc(SC)c(C)c1` (stereo not shown) [Fenamiphos], the “% Dead cells (vehicle subtracted)” value is 5.708%. Consider `CCCSP(=O)(OCC)Oc1ccc(Br)cc1Cl` (stereo not shown) [Profenofos], for which the “% Dead cells (vehicle subtracted)” value was -2.76%.

In the case of `CCCN(CCC)C(=O)SCC` [EPTC], the “% Dead cells (vehicle subtracted)” value was 3.437%. In the case of `C#CCC1=C(C)C(OC(=O)C2C(C=C(C)C)C2(C)C)CC1=O` (stereo not shown) [Prallethrin], the “% Dead cells (vehicle subtracted)” value is on record as -0.1241%. Take `COCC(C)N(C(=O)CCl)c1c(C)csc1C` (stereo not shown) [Dimethenamid]: under “mouse, 24 h, 10 µM”, the “% Dead cells (vehicle subtracted)” value was -0.353%.

In the case of `N#CN` [Cyanamide], the “% Dead cells (vehicle subtracted)” value is reported as 0.2955%.

Turning to `N#Cc1c(Cl)cccc1Cl` [Dichlobenil], the “% Dead cells (vehicle subtracted)” value (mouse, 24 h, 10 µM) was determined as 8.856%. In the case of `CCC(=O)Nc1ccc(Cl)c(Cl)c1` [Propanil], the “% Dead cells (vehicle subtracted)” value is -3.018%. The same measure, in the same setting: next, `CC(C)(C)C(=O)C(Oc1ccc(Cl)cc1)n1cncn1` (stereo not shown) [Triadimefon]: -0.7492%; `Cc1cnc(C2=NC(C)(C(C)C)C(=O)N2)c(C(=O)O)c1` (stereo not shown): -0.5785%. For `O=C(O)COc1nc(Cl)c(Cl)cc1Cl` [Triclopyr], the “% Dead cells (vehicle subtracted)” value is reported as -0.8572%. Consider `O=C(O)c1c(Cl)ccc2cc(Cl)cnc12` [Quinclorac], for which the “% Dead cells (vehicle subtracted)” value is on record as -1.41%.

For the compound `COc1cnc(OC)n2nc(NS(=O)(=O)c3c(OCC(F)F)cccc3C(F)(F)F)nc12` [Penoxsulam], the “% Dead cells (vehicle subtracted)” value (mouse, 24 h, 10 µM) was -0.3089%. Turning to `CC1=C(C(=O)Nc2ccccc2)SCCO1`, the “% Dead cells (vehicle subtracted)” value was 3.189%.

Turning to `CCOc1nc(F)cc2nc(S(=O)(=O)Nc3c(Cl)cccc3Cl)nn12` [Diclosulam], the “% Dead cells (vehicle subtracted)” value was found to be 0.003204%. Regarding `CCCN(CCC)c1c([N+](=O)[O-])cc(C(F)(F)F)cc1[N+](=O)[O-]` [Trifluralin], the “% Dead cells (vehicle subtracted)” value was determined as 0.2689%. As for `COP(=O)(OC)OC(Br)C(Cl)(Cl)Br` (stereo not shown) [Naled], the “% Dead cells (vehicle subtracted)” value was -0.709%. Regarding `CCCN(CCOc1c(Cl)cc(Cl)cc1Cl)C(=O)n1ccnc1` [Prochloraz], the “% Dead cells (vehicle subtracted)” value is listed as -2.048%. Regarding `CCCCOC(=O)[C@@H](C)Oc1ccc(Oc2ccc(C(F)(F)F)cn2)cc1`, the “% Dead cells (vehicle subtracted)” value was 0.5693%. With `CCOCN(C(=O)CCl)c1c(C)cccc1CC` [Acetochlor], where the note is “mouse, 24 h, 10 µM”, the “% Dead cells (vehicle subtracted)” value stood at 2.3535%.

Consider `CSC(=O)c1cccc2nnsc12`, for which the “% Dead cells (vehicle subtracted)” value was -0.1497%. As for `O=C(O)C(F)(F)C(F)(F)C(F)(F)C(F)(F)C(F)(F)C(F)(F)C(F)(F)F`, the “% Dead cells (vehicle subtracted)” value is reported as -2.482%.

With `O=c1ccc(=O)[nH][nH]1` [Maleic hydrazide], the “% Dead cells (vehicle subtracted)” value amounted to 7.215%.

Take `O=C(O)c1cc(Oc2ccc(C(F)(F)F)cc2Cl)ccc1[N+](=O)[O-]` [Acifluorfen]: the “% Dead cells (vehicle subtracted)” value was 3.873%.

`CN/C(=N\[N+](=O)[O-])NCc1cnc(Cl)s1` [Clothianidin]: the “% Dead cells (vehicle subtracted)” value is reported as -2.188%. On the same count and under the same terms, next, `N#CSCSc1nc2ccccc2s1`: -1.603%.

Take `CCOC(=O)C(C)Oc1ccc(Oc2cnc3cc(Cl)ccc3n2)cc1` (stereo not shown) [Quizalofop-ethyl]: under “mouse, 24 h, 10 µM”, the “% Dead cells (vehicle subtracted)” value is reported as -4.709%. Regarding `Cc1nc(N(C)C)nc(OC(=O)N(C)C)c1C` [Pirimicarb], the “% Dead cells (vehicle subtracted)” value is given as -1.736%.

With `CC1(C)C(C=C(Cl)Cl)C1C(=O)OC(C#N)c1ccc(F)c(Oc2ccccc2)c1` (stereo not shown) [Cyfluthrin (Baythroid)], the “% Dead cells (vehicle subtracted)” value was -3.677%. With `CN(C)c1nc(=O)n(C2CCCCC2)c(=O)n1C` [Hexazinone], for the setting “mouse, 24 h, 10 µM”, the “% Dead cells (vehicle subtracted)” value is given as -2.629%.

For `CCCOC(=O)NCCCN(C)C` [Propamocarb hydrochloride], the “% Dead cells (vehicle subtracted)” value was -1.887%.

As to `CCOC(=O)COc1cc(-n2ncc(C(F)(F)F)c(C)c2=O)c(F)cc1Cl` [Flufenpyr-ethyl], the “% Dead cells (vehicle subtracted)” value was -1.575%.

Regarding `Oc1cc(Cl)ccc1Oc1ccc(Cl)cc1Cl` [Triclosan], the “% Dead cells (vehicle subtracted)” value turned out to be 0.6048%. Turning to `CC(C)=CC1C(C(=O)OCc2coc(Cc3ccccc3)c2)C1(C)C` (stereo not shown) [Resmethrin], the “% Dead cells (vehicle subtracted)” value is 1.827%. Turning to `CCNC(=O)NC(=O)/C(C#N)=N/OC` [Cymoxanil], the “% Dead cells (vehicle subtracted)” value was 3.586%. Take `CC(Oc1cccc(Cl)c1)C(=O)O` (stereo not shown) [Cloprop]: the “% Dead cells (vehicle subtracted)” value is listed as -3.007%. Consider `CC(C)Oc1cc(-n2nc(C(C)(C)C)oc2=O)c(Cl)cc1Cl` [Oxadiazon], for which the “% Dead cells (vehicle subtracted)” value (mouse, 24 h, 10 µM) came to 5.6039%. Regarding `CCCCCOC(=O)COc1cc(N2C(=O)C3=C(CCCC3)C2=O)c(F)cc1Cl` [Flumiclorac-pentyl], the “% Dead cells (vehicle subtracted)” value (mouse, 24 h, 10 µM) was -0.6581%. With `CCSC(=O)N1CCCCCC1` [Molinate], the “% Dead cells (vehicle subtracted)” value was 7.609%. In the case of `CCOc1cc(C(C)(C)C)ccc1C1COC(c2c(F)cccc2F)=N1` (stereo not shown) [Etoxazole], the “% Dead cells (vehicle subtracted)” value was -1.186%. Take `C#CCOC(=O)[C@@H](C)Oc1ccc(Oc2ncc(Cl)cc2F)cc1` [Clodinafop-propargyl]: for the setting “mouse, 24 h, 10 µM”, the “% Dead cells (vehicle subtracted)” value is listed as -2.625%.

As for `O=S1OCC2C(CO1)C1(Cl)C(Cl)=C(Cl)C2(Cl)C1(Cl)Cl` (stereo not shown) [Endosulfan], the “% Dead cells (vehicle subtracted)” value is -0.8816%.

For Mancozeb, the “% Dead cells (vehicle subtracted)” value is listed as 1.017%.

Turning to `C[C@@H]1[C@@H](c2ccc(Cl)cc2)SC(=O)N1C(=O)NC1CCCCC1` [Hexythiazox], the “% Dead cells (vehicle subtracted)” value was determined as 0.5871%. With `COC(=O)CSc1cc(/N=c2\sc(=O)n3n2CCCC3)c(F)cc1Cl` [Fluthiacet-methyl], where the note is “mouse, 24 h, 10 µM”, the “% Dead cells (vehicle subtracted)” value was -0.383%.

With `C=CCOC(Cn1ccnc1)c1ccc(Cl)cc1Cl` (stereo not shown) [Imazalil], the “% Dead cells (vehicle subtracted)” value amounted to 0.2633%.

As to `CCOC(=O)C(C)OC(=O)c1cc(Oc2ccc(C(F)(F)F)cc2Cl)ccc1[N+](=O)[O-]` (stereo not shown) [Lactofen], for the setting “mouse, 24 h, 10 µM”, the “% Dead cells (vehicle subtracted)” value is reported as -1.539%. On to `CNC(=O)Oc1ccccc1OC(C)C` [Propoxur], for which the “% Dead cells (vehicle subtracted)” value amounted to 0.5409%. Take `CC1(C(=O)Nc2ccc(O)c(Cl)c2Cl)CCCCC1` [Fenhexamid]: the “% Dead cells (vehicle subtracted)” value (mouse, 24 h, 10 µM) is on record as -0.6431%. As to `S=C1NCCN1` [Ethylenethiourea (2-Imidazolidinethione)], the “% Dead cells (vehicle subtracted)” value was -0.5482%. As for `Nc1nc(N)nc(NC2CC2)n1` [Cyromazine], the “% Dead cells (vehicle subtracted)” value (mouse, 24 h, 10 µM) was -4.3436%. Regarding `CN=C=S`, the “% Dead cells (vehicle subtracted)” value turned out to be 3.139%. On to `COCc1cnc(C2=NC(C)(C(C)C)C(=O)N2)c(C(=O)O)c1` (stereo not shown) [Imazamox], for which the “% Dead cells (vehicle subtracted)” value is on record as -0.1553%. Turning to `COC(=O)C=C(C)OP(=O)(OC)OC`, the “% Dead cells (vehicle subtracted)” value is on record as -2.439%.

As for Chlorpyrifos oxon, the “% Dead cells (vehicle subtracted)” value was found to be 0.8087%.

Take `CC(C)N(C(=O)SCC(Cl)=C(Cl)Cl)C(C)C` [Tri-allate]: the “% Dead cells (vehicle subtracted)” value is given as 1.844%.

With `CNC(=O)O/N=C/C(C)(C)SC` [Aldicarb], the “% Dead cells (vehicle subtracted)” value is reported as -0.4371%. In the case of `CCC(C)(C)C(=O)OC1=C(c2ccc(Cl)cc2Cl)C(=O)OC12CCCCC2` [Spirodiclofen], the “% Dead cells (vehicle subtracted)” value is reported as 1.699%. In the case of `Clc1nc(Cl)nc(Nc2ccccc2Cl)n1`, the “% Dead cells (vehicle subtracted)” value is -1.572%.
